This note sets out measurements from patent US9085608B2, “Treatment of biofilms” (LYTIX BIOPHARMA AS, priority 2008, dated 2015).

Assay [1] deals with 24 h old biofilm of 6 different staphylococcal strains. In words: Biofilm metabolic activity, Alamar blue reduction. Type of assay: cell-based, S. epidermidis, S. haemolyticus, S. aureus. To be noted: 50 mg/L, 24 h treatment; all biofilms except S. aureus PIA 9. For orientation: Alamar Blue is a resazurin reagent that responds to reducing activity.
Method: Biofilm formation was induced in 96-well flat bottom microtitre plates (Nunclon Surface, NUNC, Roskilde, Denmark). First, overnight cultures were diluted 1:100 in MHIIB (S. epidermidis and S. haemolyticus) or tryptic soy broth (TSB) with 5% glucose and 5% NaCl (S. aureus). Two hundred of this bacterial suspension (10^7 cfu/ml) was added to each well and incubated for 24 h at 37° C. After 24 h the wells were carefully washed twice with phosphate-buffered saline (PBS) to remove planktonic bacteria. The washing procedure was evaluated by measuring metabolic activity of the PBS with the Alamar blue method, described in detail below.
The washed biofilms were subjected to treatment with antibiotics or SAMPs at different concentrations. Stock solutions of the tetracycline (Sigma Aldrich), vancomycin (Alpharma) and linezolid (Pfizer) were diluted in MHIIB to 5 mg/L, 50 mg/L and 500 mg/L, and rifampicin (Sigma Aldrich) was diluted in MHIIB to 0.01 mg/L, 0.1 mg/L and 1 mg/L. Trifluoroacetate salts of the SAMPs were dissolved in sterile water and diluted to 5 mg/L, 50 mg/L and 500 mg/L in MHIIB. 200 μl of antibiotics or SAMPs, in different concentrations, were added to each well and incubated for 24 h at 37° C. Positive controls were untreated biofilms only added 200 μl MHIIB. Negative controls were only 200 μl MHIIB, with no bacteria added.
We quantified the metabolic activity of biofilm with a slightly modified method previously described by Pettit et al. in Antimicrob. […] Briefly, the wells were washed twice with PBS. We then added 250 μl MHIIB with 5% Alamar blue (AB; Invitrogen, Carlsbad, Calif., USA) to each well. AB is a redox indicator which both fluoresces and changes colour in response to chemical reduction. The extent of reduction is a reflection of bacterial cell viability. After 1 h incubation at 37° C., absorbance was recorded at 570 and 600 nm using Versamax tuneable microplate reader (Molecular Devices, Sunnyvale, Calif., USA). […] The highest and lowest value of each run was excluded from the analyses, and the remaining 18 values were averaged.
The percent reduction of AB was calculated according to the manufacturer's formula (Invitrogen, Carlsbad, USA). We calculated mean and standard deviations (SD) of all repeated measurements.
We defined two levels of antimicrobial suppression of metabolic activity.
In assay [2] the test system is Staphylococcus aureus PIA 9. Description: microbe, parasite or virus in culture. The procedure: (§1) Bacteria were grown overnight at 37° C. in cation adjusted Mueller-Hinton II Broth (MHIIB).
(§2) We determined the MICs of oxacillin, gentamicin, tetracycline, vancomycin and linezolid using E-test (AB Biodisk, Solna, Sweden) and MICs of rifampicin using broth microdilution assay. Breakpoints were interpreted according to EUCAST criteria. […] All 3 SAMPs are tripeptides with two arginine residues providing their cationic moieties (FIG. 1). The lipophilic bulk is provided by a modified tryptophane derivate. […] The molecular weights of the SAMPs are in the range of 700-800 Dalton.

The subject of assay [3] is Staphylococcus epidermidis RP62A ATCC 35984. In words: microbe, parasite or virus in culture. How it is done: as §1, §2
The subject of assay [4] is Staphylococcus haemolyticus TUH 51-07. In words: microbe, parasite or virus in culture. How it is done:
as §1, §2

In assay [5] the test system is Staphylococcus haemolyticus TUH 51-03. In words: microbe, parasite or virus in culture. How it is done: as §1, §2
In assay [6] the test system is Staphylococcus aureus PIA90. Description: microbe, parasite or virus in culture. How it is done: as §1, §2
Assay [7] concerns Staphylococcus epidermidis TUH 08-16. Description: microbe, parasite or virus in culture. The procedure:
as §1, §2

For assay [8], the system named is S. haemolyticus TUH 51-07 biofilm. Description: Biofilm imaging, LIVE/DEAD staining and confocal laser scanning microscopy. Type of assay: cell-based, Staphylococcus haemolyticus. To be noted: 24 h treatment. How it is done:
One ml aliquots of MHIIB-diluted overnight culture was used to grow S. haemolyticus TUH 51-07 biofilm on plastic coverslides (Thermanox, cellculture treated on one side, NUNC, Roskilde, Denmark) in 24-well dishes (Falcon 3047, Becton Dickinson, NJ, USA) for 24 h. The coverslides were then washed carefully with PBS, moved to a new plate and treated for 24 h with tetracycline 50 mg/L and 500 mg/L, vancomycin 50 mg/L and 500 mg/L, or Compound A 50 mg/L and 500 mg/L. The coverslides were washed again with […] and stained with a LIVE/DEAD kit (Invitrogen Molecular Probes, Eugene, Oreg., USA) following the manufacturer's instructions. This stain contains SYTO 9 (green fluorescent) and propidium iodide (PI; red fluorescent), both binding to DNA. When used alone, the SYTO 9 generally stains all bacteria in a population; both those with intact and those with damaged membranes. In contrast, PI penetrates only bacteria with damaged membranes, causing a reduction in the SYTO 9 stain green fluorescence when both dyes are present. We examined treated and untreated biofilms with a Leica TCS SP5 (Leica Microsystems CMS Gmbh, Mannheim, Germany) confocal laser scanning microscope (CLSM). Images were obtained using a 63×1.2 NA HCX PL APO water immersion lens. For detection of SYTO9 (green channel), we used the 488 nm line of the argon laser and a detection bandwidth of 495-515 nm. For PI detection (red channel), we used the 561 nm line and a detection bandwidth of 615-660 nm. The two fluorescent-signals were collected sequentially at 400 Hz. Image analyses and export was performed in Leica LAS AF version 1.8.2.

Assay [9] relates to six staphylococcal strains (2 S. epidermidis, 2 S. haemolyticus and 2 S. aureus). In words: Susceptibility testing under planktonic growth condition, EUCAST breakpoints. Type of assay: cell-based. To be noted: EUCAST criteria. How it is done: The six staphylococcal strains (2 S. epidermidis, 2 S. haemolyticus and 2 S. aureus) used in this study were selected based on their previously known biofilm forming capacity (Table 1).
as §1
We determined the MICs of oxacillin, gentamicin, tetracycline, vancomycin and linezolid using E-test (AB Biodisk, Solna, Sweden) and MICs of rifampicin using broth microdilution assay. Breakpoints were interpreted according to EUCAST criteria. We selected 3 different SAMPs (Compounds A, B and C; Lytix Biopharma, Tromsø, Norway—see FIG. 1) based on previously known antimicrobial activities, and determined their exact MICs with broth microdilution assay. All 3 SAMPs are tripeptides with two arginine residues providing their cationic moieties (FIG. 1). The lipophilic bulk is provided by a modified tryptophane derivate. The difference between the compounds is the size of the C-terminal modification; Compound A has the smallest and Compound B has the largest C-terminal modification (FIG. 1). The molecular weights of the SAMPs are in the range of 700-800 Dalton.

Where [10] appears, read: Staphylococcus epidermidis, ATCC35984.
The mark [11] stands for this setting: Staphylococcus haemolyticus, TUH5107.
Where [12] appears, read: Staphylococcus haemolyticus, TUH5103.
[13] abbreviates: Staphylococcus epidermidis, TUH0816.
The mark [14] stands for this setting: planktonic, SE RP62A ATCC 35984.
Where [15] appears, read: the four other staphylococcal strains.

Values after ≈ are worked out from the molar mass of the structure shown. “Also recorded” adds a separate entry of the source. Like-named read-outs stand apart in the source and are kept apart here.

On to `CCCCCCNC(=O)[C@H](CCCNC(=N)N)NC(=O)[C@H](Cc1c(C(C)(C)C)[nH]c2c(C(C)(C)C)cc(C(C)(C)C)cc12)NC(=O)[C@@H](N)CCCNC(=N)N` [Compound C], for which the “suppression of metabolic activity (AB reduction)” value (“suppression … (AB reduction)” for short) in assay [1] was “strong or complete suppression”. Moreover, the MIC in [2] (PIA 9) was found to be 4 µg/mL (≈ 5.21 µM); in [3] (ATCC 35984) it was 4 µg/mL (≈ 5.21 µM); in assay [4], 4 µg/mL (≈ 5.21 µM); in assay [5] it was 4 µg/mL (≈ 5.21 µM); in [6] (PIA90), 2 µg/mL (≈ 2.6 µM); in assay [7] (TUH 08-16), 2 µg/mL (≈ 2.6 µM).
As for `CO[C@H]1/C=C/O[C@@]2(C)Oc3c(C)c(O)c4c(O)c(c(/C=N/N5CCN(C)CC5)c(O)c4c3C2=O)NC(=O)/C(C)=C\C=C\[C@H](C)[C@H](O)[C@@H](C)[C@@H](O)[C@@H](C)[C@H](OC(C)=O)[C@@H]1C` [RIF, rifampicin], the MIC was under 0.016 µg/mL in assay [2] (Staphylococcus aureus, PIA9); under 0.016 µg/mL in assay [3] (setting [10]); 0.016 µg/mL (≈ 0.0194 µM) in [4] (setting [11]); under 0.016 µg/mL in [5] (setting [12]); 0.016 µg/mL (≈ 0.0194 µM) in [6] (Staphylococcus aureus, PIA90); 0.016 µg/mL (≈ 0.0194 µM) in assay [7] (setting [13]).
In the case of `CC(C)(C)c1cc(C(C)(C)C)c2[nH]c(C(C)(C)C)c(C[C@H](NC(=O)[C@@H](N)CCCNC(=N)N)C(=O)N[C@@H](CCCNC(=N)N)C(=O)NCCc3ccccc3)c2c1` [Compound B], in assay [1], the “suppression … (AB reduction)” value was “strong or complete suppression”. The MIC in [2] (planktonic, SA PIA 9) is 2 µg/mL (≈ 2.54 µM); in assay [3] (setting [14]), 4 µg/mL (≈ 5.08 µM); in assay [4] (planktonic, SH TUH 51-07) it was 4 µg/mL (≈ 5.08 µM); in assay [5] (planktonic, SH TUH 51-03), 4 µg/mL (≈ 5.08 µM); in [6] (planktonic, SA PIA90), 2 µg/mL (≈ 2.54 µM); in [7] (planktonic, SE TUH 08-16) it was 2 µg/mL (≈ 2.54 µM).
Turning to `CC(C)NC(=O)[C@H](CCCNC(=N)N)NC(=O)[C@H](Cc1c(C(C)(C)C)[nH]c2c(C(C)(C)C)cc(C(C)(C)C)cc12)NC(=O)[C@@H](N)CCCNC(=N)N` [Compound A], the results for the “LIVE/DEAD staining of biofilm cells (CLSM)” value in [8] (50 mg/L) and in assay [8] (500 mg/L) were “almost all cells are stained red” and “almost all cells are stained red; also recorded: membrane damage of all cells”, respectively. Moreover, the “suppression … (AB reduction)” value in assay [1] is “strong or complete suppression”. Besides, the MIC in assay [2] (PIA 9) stood at 8 µg/mL (≈ 11 µM); in assay [3] (ATCC 35984), 8 µg/mL (≈ 11 µM); in assay [4], 8 µg/mL (≈ 11 µM); in assay [5], 8 µg/mL (≈ 11 µM); in [6] (PIA90), 8 µg/mL (≈ 11 µM); in assay [7] (TUH 08-16), 4 µg/mL (≈ 5.51 µM).
With gentamicin, the entries for the “susceptibility under planktonic growth” value in assay [9] (setting [15]) and in assay [9] (the two S. aureus strains) were “resistant” and “susceptible”, respectively. The MIC in assay [2] (planktonic, SA PIA 9) was determined as 1 µg/mL; in assay [3] (setting [14]), 8 µg/mL; in assay [4] (planktonic, SH TUH 51-07) it was 64 µg/mL; in [5] (planktonic, SH TUH 51-03), 64 µg/mL; in assay [6] (planktonic, SA PIA90), 0.5 µg/mL; in assay [7] (planktonic, SE TUH 08-16), 256 µg/mL.
As to `CC(=O)NC[C@H]1CN(c2ccc(N3CCOCC3)c(F)c2)C(=O)O1` [LZD, linezolid], the “susceptibility under planktonic growth” value in assay [9] (all 6 strains) is “susceptible; also recorded: sensitive”. Also, the MIC amounted to 2 µg/mL (≈ 5.93 µM) in [2] (Staphylococcus aureus, PIA9); 1 µg/mL (≈ 2.96 µM) in [3] (setting [10]); 0.5 µg/mL (≈ 1.48 µM) in assay [4] (setting [11]); 0.5 µg/mL (≈ 1.48 µM) in assay [5] (setting [12]); 1 µg/mL (≈ 2.96 µM) in assay [6] (Staphylococcus aureus, PIA90); 2 µg/mL (≈ 5.93 µM) in assay [7] (setting [13]).
With `Cc1onc(-c2ccccc2)c1C(=O)N[C@@H]1C(=O)N2[C@@H]1SC(C)(C)[C@@H]2C(=O)O` [OXA, oxacillin], the “susceptibility under planktonic growth” value in [9] (setting [15]) is “resistant”; in [9] (the two S. aureus strains), “susceptible”. For the same compound, the MIC in assay [2] (planktonic, SA PIA 9) is 1 µg/mL (≈ 2.49 µM); in assay [3] (setting [14]), 8 µg/mL (≈ 19.9 µM); in assay [4] (planktonic, SH TUH 51-07), over 256 µg/mL; in assay [5] (planktonic, SH TUH 51-03) it was over 256 µg/mL; in [6] (planktonic, SA PIA90) it was 1 µg/mL (≈ 2.49 µM); in [7] (planktonic, SE TUH 08-16) it was 16 µg/mL (≈ 39.9 µM).
